Source: patent US20220119411A1, “IMMUNOMODULATORS, COMPOSITIONS AND METHODS THEREOF” (BETTA PHARMACEUTICALS CO., LTD, priority 2018, published 2022)

These compounds were tested against T1, PD-1/PD-L1 protein/protein interaction (Homo sapiens, UniProt Q9NZQ7) (assay: PD-1/PD-L1 homogenous time-resolved fluorescence (HTRF) binding assay). Details: recombinant human PD-L1 (19-238)-His 10 nM, human PD-1 (25-167)-Fc 3 nM, 25° C., PBS pH 7.4.
T1 construct: Recombinant human PD-L1 protein (19-238) with a His-tag at the C-terminus; purchased AcroBiosystems PD1-H5229 (PD-L1); PD1-H5257 (PD-1)
Procedure: Resolved Fluorescence (HTRF) Binding Assay
The assays were conducted in a standard black 384-well polystyrene plate with a final volume of 20 μL. Inhibitors were first serially diluted in DMSO and then added to the plate wells before the addition of other reaction components. The final concentration of DMSO in the assay was 1%. The assays were carried out at 25° C. in the PBS buffer (pH 7.4) with 0.05% Tween-20 and 0.1% BSA. Recombinant human PD-L1 protein (19-238) with a His-tag at the C-terminus was purchased from AcroBiosy stems (PD1-H5229). Recombinant human PD-1 protein (25-167) with Fc tag at the C-terminus was also purchased from AcroBiosystems (PD1-H5257). PD-L1 and PD-1 proteins were diluted in the assay buffer and 10 μL was added to the plate well. Plates were centrifuged and proteins were preincubated with inhibitors for 40 min. The incubation was followed by the addition of 10 μL of HTRF detection buffer supplemented with Europium cryptate-labeled anti-human IgG (PerkinElmer-AD0212) specific for Fc and anti-His antibody conjugated to SureLight®—Allophycocyanin (APC, PerkinElmer-AD0059H). After centrifugation, the plate was incubated at 25° C. for 60 min. Before reading on a PHERAstar FS plate reader (665 nm/620 nm ratio). Final concentrations in the assay were—3 nM PD1, 10 nM PD-L1, 1 nM europium anti-human IgG and 20 nM anti-His-Allophycocyanin. IC50 determination was performed by fitting the curve of percent control activity versus the log of the inhibitor concentration using the GraphPad Prism 5.0 software.
Data obtained for the Example compounds using the PD-1/PD-L1 homogenous time-resolved fluorescence (HTRF) binding assay described in Example A is provided in Table 2.

T1 sequence (Q9NZQ7 19-238): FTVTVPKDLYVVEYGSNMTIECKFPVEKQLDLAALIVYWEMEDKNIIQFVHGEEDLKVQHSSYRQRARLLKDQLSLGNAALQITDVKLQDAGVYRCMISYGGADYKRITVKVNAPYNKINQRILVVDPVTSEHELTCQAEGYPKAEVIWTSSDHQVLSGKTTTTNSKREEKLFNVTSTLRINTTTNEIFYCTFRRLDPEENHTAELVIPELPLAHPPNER

For `Cc1c(NC(=O)c2nccs2)cccc1-c1cccc2c1CCN2C(=O)c1nc2c(s1)CN(CC(=O)O)CC2` [Example 26, 2-(2-(4-(2-methyl-3-(thiazole-2-carboxamido)phenyl)indoline-1-carbonyl)-6,7-dihydrothiazolo[5,4-c]pyridin-5(4H)-yl)acetic acid], which IC50 is on record?
The IC50 was ≤ 25 nM.

`O=C(c1nc2c(s1)CN(CCO)CC2)N1CCc2c(-c3ccc4c(c3)OCCO4)cccc21` [Example 56, (4-(2,3-dihydrobenzo[b][1,4]dioxin-6-yl)indolin-1-yl)(5-(2-hydroxyethyl)-4,5,6,7-tetrahydrothiazolo[5,4-c]pyridin-2-yl)methanone] was tested. Which IC50 did it give?
Its IC50 is ≤ 25 nM.

How did the IC50 turn out when `O=C(O)CN1CCc2nc(C(=O)N3CCc4c(-c5cccc(NC(=O)CCN6CCC(O)C6)c5)cccc43)sc2C1` (centres unmarked) [Example 14, 2-(2-(4-(3-(3-(3-hydroxypyrrolidin-1-yl)propanamido)phenyl)indoline-1-carbonyl)-6,7-dihydrothiazolo[5,4-c]pyridin-5(4H)-yl)acetic acid] was run?
The IC50 was ≤ 25 nM.

How did the IC50 turn out when `Cc1c(OCCCN2CCC(O)C2)cccc1-c1cccc2c1CCN2C(=O)c1nc2c(n1C)CNCC2` (centres unmarked) [Example 39, (4-(3-(3-(3-hydroxypyrrolidin-1-yl)propoxy)-2-methylphenyl)indolin-1-yl)(3-methyl-4,5,6,7-tetrahydro-3H-imidazo[4,5-c]pyridin-2-yl)methanone] was run?
Its IC50 is ≤ 25 nM.

For `Cc1c(NC(=O)CCN2CCC(O)C2)cccc1-c1cccc2c1CCN2C(=O)c1nc2c(o1)CN(CC(=O)O)CC2` (centres unmarked) [Example 22, 2-(2-(4-(3-(3-(3-hydroxypyrrolidin-1-yl)propanamido)-2-methylphenyl)indoline-1-carbonyl)-6,7-dihydrooxazolo[5,4-c]pyridin-5(4H)-yl)acetic acid], which IC50 is on record?
The IC50 was ≤ 25 nM.

For `O=C(O)CN1CCc2nc(C(=O)N3CCc4c(-c5cccc6c5CCN6CCN5CCC(O)C5)cccc43)sc2C1` (centres unmarked) [Example 12, 2-(2-(1′-(2-(3-hydroxypyrrolidin-1-yl)ethyl)-[4,4′-biindoline]-1-carbonyl)-6,7-dihydrothiazolo[5,4-c]pyridin-5(4H)-yl)acetic acid], which IC50 is on record?
Its IC50 is ≤ 25 nM.

For `O=C(O)CN1CCc2nc(C(=O)N3CCc4c(-c5cccc(CCN6CCOCC6)c5)cccc43)sc2C1` [Example 19, 2-(2-(4-(3-(2-morpholinoethyl)phenyl)indoline-1-carbonyl)-6,7-dihydrothiazolo[5,4-c]pyridin-5(4H)-yl)acetic acid], which IC50 is on record?
Its IC50 is ≤ 25 nM.

How did the IC50 turn out when `O=C(O)CN1CCc2nc(C(=O)N3CCc4c(-c5cccc6c5CCN6C(=O)c5nccs5)cccc43)sc2C1` [Example 24, 2-(2-(1′-(thiazole-2-carbonyl)-[4,4′-biindoline]-1-carbonyl)-6,7-dihydrothiazolo[5,4-c]pyridin-5(4H)-yl)acetic acid] was run?
Its IC50 is 25 to 100 nM.

For `CC(=O)N1CCc2c(-c3cccc4c3CCN4C(=O)c3nc4c(s3)CN(CC(=O)O)CC4)cccc21` [Example 2, 2-(2-(1′-acetyl-[4,4′-biindoline]-1-carbonyl)-6,7-dihydrothiazolo[5,4-c]pyridin-5(4H)-yl)acetic acid], which IC50 is on record?
The IC50 was ≤ 25 nM.

How did the IC50 turn out when `O=C(O)CCN1CCc2nc(C(=O)N3CCCc4c(-c5cccc(OCCN6CCOCC6)c5)cccc43)oc2C1` [Example 54, 3-(2-(5-(3-(2-morpholinoethoxy)phenyl)-1,2,3,4-tetrahydroquinoline-1-carbonyl)-6,7-dihydrooxazolo[5,4-c]pyridin-5(4H)-yl)propanoic acid] was run?
Its IC50 is 100 to 200 nM.

For `Cc1c(NC(=O)CCN2CCC(O)C2)cccc1-c1cccc2c1CCN2C(=O)c1nc2c(n1C)CN(CC(=O)O)CC2` (centres unmarked) [Example 20, 2-(2-(4-(3-(3-(3-hydroxypyrrolidin-1-yl)propanamido)-2-methylphenyl)indoline-1-carbonyl)-3-methyl-3,4,6,7-tetrahydro-5H-imidazo[4,5-c]pyridin-5-yl)acetic acid], which IC50 is on record?
Its IC50 is ≤ 25 nM.

Which IC50 does the source give for `O=C(CCN1CCC(O)C1)N1CCc2c(-c3cccc4c3CCN4C(=O)c3cn4c(n3)CNCC4)cccc21` (centres unmarked) [Example 42, 3-(3-hydroxypyrrolidin-1-yl)-1-(1′-(5,6,7,8-tetrahydroimidazo[1,2-a]pyrazine-2-carbonyl)-[4,4′-biindolin]-1-yl)propan-1-one] here?
The IC50 was ≤ 25 nM.

For `Cc1c(OCCCN2CCC(O)C2)cccc1-c1cccc2c1CCN2C(=O)c1nc2c(n1C)CCN(CC(=O)O)C2` (centres unmarked) [Example 37, 2-(2-(4-(3-(3-(3-hydroxypyrrolidin-1-yl)propoxy)-2-methylphenyl)indoline-1-carbonyl)-1-methyl-1,4,6,7-tetrahydro-5H-imidazo[4,5-c]pyridin-5-yl)acetic acid], which IC50 is on record?
The IC50 was ≤ 25 nM.

For `O=C(c1nc2c(o1)CN(CCO)CC2)N1CCCc2c(-c3cccc(OCCN4CCOCC4)c3)cccc21` [Example 53, (5-(2-hydroxyethyl)-4,5,6,7-tetrahydrooxazolo[5,4-c]pyridin-2-yl)(5-(3-(2-morpholinoethoxy)phenyl)-3,4-dihydroquinolin-1(2H)-yl)methanone], which IC50 is on record?
The IC50 was 25 to 100 nM.

For `Cc1c(Nc2nccc3nccnc23)cccc1-c1cccc2c1CCN2C(=O)c1nc2c(s1)CN(CC(=O)O)CC2` [Example 29, 2-(2-(4-(2-methyl-3-(pyrido[3,4-b]pyrazin-5-ylamino)phenyl)indoline-1-carbonyl)-6,7-dihydrothiazolo[5,4-c]pyridin-5(4H)-yl)acetic acid], which IC50 is on record?
The IC50 was 25 to 100 nM.

`O=C(O)CN1CCc2nc(C(=O)N3CCc4c(-c5ccc(NC(=O)CCN6CCC(O)C6)cc5)cccc43)sc2C1` (centres unmarked) [Example 49, 2-(2-(4-(4-(3-(3-hydroxypyrrolidin-1-yl)propanamido)phenyl)indoline-1-carbonyl)-6,7-dihydrothiazolo[5,4-c]pyridin-5(4H)-yl)acetic acid] was tested. Which IC50 did it give?
Its IC50 is ≤ 25 nM.

How did the IC50 turn out when `Cn1ncc2c(-c3cccc4c3CCN4C(=O)c3cn4c(n3)CNCC4)cccc21` [Example 48, (4-(1-methyl-1H-indazol-4-yl)indolin-1-yl)(5,6,7,8-tetrahydroimidazo[1,2-a]pyrazin-2-yl)methanone] was run?
Its IC50 is 100 to 200 nM.

Which IC50 does the source give for `O=C(O)CN1CCc2nc(C(=O)N3CCc4c(-c5cccc6c5CCN6CCCN5CCC(O)C5)cccc43)sc2C1` (centres unmarked) [Example 11, 2-(2-(1′-(3-(3-hydroxypyrrolidin-1-yl)propyl)-[4,4′-biindoline]-1-carbonyl)-6,7-dihydrothiazolo[5,4-c]pyridin-5(4H)-yl)acetic acid] here?
Its IC50 is ≤ 25 nM.

How did the IC50 turn out when `O=C(O)CN1CCc2nc(C(=O)N3CCc4c(-c5ccc(OCCCN6CCC(O)C6)cc5)cccc43)sc2C1` (centres unmarked) [Example 50, 2-(2-(4-(4-(3-(3-hydroxypyrrolidin-1-yl)propoxy)phenyl)indoline-1-carbonyl)-6,7-dihydrothiazolo[5,4-c]pyridin-5(4H)-yl)acetic acid] was run?
Its IC50 is ≤ 25 nM.

`Cn1c(C(=O)N2CCCc3c(-c4cccc(OCCN5CCOCC5)c4)cccc32)nc2c1CN(CC(=O)O)CC2` [Example 51, 2-(3-methyl-2-(5-(3-(2-morpholinoethoxy)phenyl)-1,2,3,4-tetrahydroquinoline-1-carbonyl)-3,4,6,7-tetrahydro-5H-imidazo[4,5-c]pyridin-5-yl)acetic acid] was tested. Which IC50 did it give?
Its IC50 is ≤ 25 nM.

Which IC50 does the source give for `Cc1c(OCCCN2CCC(O)C2)cccc1-c1cccc2c1CCN2C(=O)c1cn2c(n1)CNCC2` (centres unmarked) [Example 41, (4-(3-(3-(3-hydroxypyrrolidin-1-yl)propoxy)-2-methylphenyl)indolin-1-yl)(5,6,7,8-tetrahydroimidazo[1,2-a]pyrazin-2-yl)methanone] here?
Its IC50 is ≤ 25 nM.

How did the IC50 turn out when `Cc1c(NC(=O)CCN2CCC(O)C2)cccc1-c1cccc2c1CCN2C(=O)c1nc2c(s1)CN(CC(=O)O)CC2` (centres unmarked) [Example 13, 2-(2-(4-(3-(3-(3-hydroxypyrrolidin-1-yl)propanamido)-2-methylphenyl)indoline-1-carbonyl)-6,7-dihydrothiazolo[5,4-c]pyridin-5(4H)-yl)acetic acid] was run?
Its IC50 is ≤ 25 nM.

With `O=C(O)CN1CCc2nc(C(=O)N3CCc4c(-c5ccc6c(c5)OCCO6)cccc43)sc2C1` [Example 55, 2-(2-(4-(2,3-dihydrobenzo[b][1,4]dioxin-6-yl)indoline-1-carbonyl)-6,7-dihydrothiazolo[5,4-c]pyridin-5(4H)-yl)acetic acid] as the compound, how does the IC50 read?
The IC50 was 25 to 100 nM.

With `O=C(O)CN1CCc2nc(C(=O)N3CCc4c(-c5cccc6c5CCN6C(=O)c5ccccn5)cccc43)sc2C1` [Example 25, 2-(2-(1′-picolinoyl-[4,4′-biindoline]-1-carbonyl)-6,7-dihydrothiazolo[5,4-c]pyridin-5(4H)-yl)acetic acid] as the compound, how does the IC50 read?
Its IC50 is 25 to 100 nM.

`Cc1c(OCCCN2CCCC2)cccc1-c1cccc2c1CCN2C(=O)c1ncc(CNCCO)s1` [Example 45, (5-(((2-hydroxyethyl)amino)methyl)thiazol-2-yl)(4-(2-methyl-3-(3-(pyrrolidin-1-yl)propoxy)phenyl)indolin-1-yl)methanone] was tested. Which IC50 did it give?
Its IC50 is ≤ 25 nM.

With `O=C(c1cn2c(n1)CNCC2)N1CCc2c(-c3cccc4c3cnn4CCCN3CCOCC3)cccc21` [Example 47, (4-(1-(3-morpholinopropyl)-1H-indazol-4-yl)indolin-1-yl)(5,6,7,8-tetrahydroimidazo[1,2-a]pyrazin-2-yl)methanone] as the compound, how does the IC50 read?
The IC50 was 25 to 100 nM.
